Values quoted from earlier work as cited in patent publication US20240366636A1, “ORAL CANNABINOID PHARMACEUTICAL COMPOSITIONS AND METHODS OF TREATING INFLAMMATORY GASTROINTESTINAL DISORDERS” (Curio IP, LLC, priority 2022, published 2024).

What was measured:
cannabinoid CB2 receptor = cannabinoid CB2 receptor (Homo sapiens, UniProt P34972)
[1] = humans
[2] = system: DNBS-induced intestinal inflammation; details: murine

Chain of cannabinoid CB2 receptor (P34972 whole entry): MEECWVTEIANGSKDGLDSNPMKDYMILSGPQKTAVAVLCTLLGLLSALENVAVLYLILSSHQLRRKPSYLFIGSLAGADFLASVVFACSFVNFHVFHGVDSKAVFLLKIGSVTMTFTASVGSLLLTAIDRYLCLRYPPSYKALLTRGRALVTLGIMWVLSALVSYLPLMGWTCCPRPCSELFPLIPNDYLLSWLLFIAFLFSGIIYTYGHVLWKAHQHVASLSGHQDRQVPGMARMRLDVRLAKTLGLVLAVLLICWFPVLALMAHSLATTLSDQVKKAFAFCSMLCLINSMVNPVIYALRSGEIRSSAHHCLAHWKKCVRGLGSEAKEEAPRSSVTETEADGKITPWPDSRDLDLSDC

C=C(C)[C@@H]1CCC(C)=C[C@H]1c1c(O)cc(CCCCC)cc1O [CBD, cannabidiol]
affinity for CB2 receptor (cannabinoid CB2 receptor): low affinity
oral bioavailability [1]: approximately 6%

Cannabigerol [CBG]
DNBS-induced intestinal inflammation and permeability [2]: attenuated
Interleuken-1β (IL-1β) levels ([2]; DNBS): reduced
myeloperoxidase (MPO) activity ([2]; DNBS): reduced

CCCCCc1cc(O)c2c(c1)OC(C)(C)[C@@H]1CCC(C)=C[C@@H]21 [THC, (−)-(6aR,10aR)-6,6,9-trimethyl-3-pentyl-6a,7,8,10a-tetrahydro-6H-benzo[c]chromen-1-ol]
peak plasma levels (following smoking of the equivalent of 10-15 mg over 5-7 minutes): around 100 μg/L
half-life (plasma, when cannabis is smoked): 2 h
Bioavailability (smoking route): 2-56%
